The values that follow come from US11021481B2, “Substituted isoindolin-1-ones and 2,3-dihydro-1h-pyrrolo[3,4-c]pyridin-1-ones as HPK1 antagonists” (Nimbus Saturn, Inc., priority 2019, dated 2021).

Where a name gives a salt, the structure may show the parent alone.

HPK1, sequence (Q92918 whole entry): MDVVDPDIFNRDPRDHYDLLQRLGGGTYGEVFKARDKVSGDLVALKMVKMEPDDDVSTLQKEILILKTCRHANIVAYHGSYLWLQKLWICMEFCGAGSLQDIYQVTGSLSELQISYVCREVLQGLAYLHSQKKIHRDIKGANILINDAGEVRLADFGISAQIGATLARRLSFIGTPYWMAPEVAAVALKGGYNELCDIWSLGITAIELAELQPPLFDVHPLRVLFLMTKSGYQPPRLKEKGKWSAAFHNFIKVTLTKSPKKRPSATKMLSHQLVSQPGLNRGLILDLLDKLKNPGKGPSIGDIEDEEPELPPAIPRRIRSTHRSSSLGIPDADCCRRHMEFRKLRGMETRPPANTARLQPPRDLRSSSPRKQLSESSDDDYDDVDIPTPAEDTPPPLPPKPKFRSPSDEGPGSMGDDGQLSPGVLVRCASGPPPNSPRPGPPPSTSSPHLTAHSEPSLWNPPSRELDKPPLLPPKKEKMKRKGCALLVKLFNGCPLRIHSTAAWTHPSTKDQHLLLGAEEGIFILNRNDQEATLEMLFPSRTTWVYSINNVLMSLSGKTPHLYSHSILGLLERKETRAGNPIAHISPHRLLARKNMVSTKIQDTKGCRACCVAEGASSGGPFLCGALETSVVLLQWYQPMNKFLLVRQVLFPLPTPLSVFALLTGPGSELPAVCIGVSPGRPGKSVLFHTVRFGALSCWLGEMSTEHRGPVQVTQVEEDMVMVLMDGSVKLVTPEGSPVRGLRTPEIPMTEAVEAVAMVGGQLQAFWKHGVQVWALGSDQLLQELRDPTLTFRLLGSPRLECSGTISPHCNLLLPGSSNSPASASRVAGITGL

This assay has as its target HPK1 (Homo sapiens (Human), UniProt Q92918). Kind of assay: HPK1 biochemical enzyme assay (microfluidic mobility shift assay). The following applies: 1.5 nM HPK1, ATP 1 mM final, 30 min preincubation, 60 min at RT, Caliper EZ Reader; read-out: HPK1 1000UMATP caliper IC50. The method, boiled down:
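Mobility shift readout of HPK1 activity after a 60 min RT reaction with 1 mM ATP, 1 μM substrate and 5 mM MgCl2. Enzyme/substrate mix was first exposed to compounds for 30 min, using ten-point curves topping at 3 μM final.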
A word on the IC50: it is the concentration needed to halve the response being measured. Regarding `O=C1NCc2c(-c3cnc4cc(F)ccn34)ccc(Nc3ccc(N4CCC[C@](O)(CN5CCOCC5)C4)cn3)c21` [I-657, (S)-4-(7-fluoroimidazo [1,2-a]pyridin-3-yl)-7-((5-(3-hydroxy-3-(morpholinomethyl)piperidin-1-yl)pyridin-2-yl)amino)isoin-dolin-1-one], the IC50 was under 100 nM.
The result for `O=C1NCc2c(-c3cnc4cc(Cl)ccn34)ccc(Nc3ccc(N4CCOCC(O)C4)cn3)c21` (stereo in doubt) [I-596, (R)-4-(7-chloroimidazo [1,2-a]pyridin-3-yl)-7-((5-(6-hydroxy-1.4-oxazepan-4-yl)pyridin-2-yl)amino)isoin-dolin-1-one] reads under 100 nM.
The result for `N#Cc1ccn2c(-c3ccc(Nc4ccc(N5CCOCC5)cn4)c4c3CNC4=O)cnc2c1` [I-183, 3-[7-[(5-morpholino-2-pyridyl)amino]-1-oxo-isoindolin-4-yl]imidazo[1,2-a]pyridine-7-carbonitrile] reads under 100 nM; that for `CN(C)Cc1nc(Nc2ccc(-c3cnc4cc(F)ccn34)c3c2C(=O)NC3)ccc1[C@@H]1CCN(C)C(=O)C1` [I-557, (R)-7-((6-((dimethylamino)-methyl)-5-(1-methyl-2-oxopiperidin-4-yl)pyridin-2-yl)amino)-4-(7-fluoroimidazo [1,2-a]pyridin-3-yl)isoindolin-1-one], under 100 nM.
For the compound `CN1CCN(c2ccc(Nc3ccc(-c4c[nH]c5ccccc45)c4c3C(=O)NC4)nc2)CC1` [I-46, 4-(1H-indol-3-yl)-7-[[5-(4-methylpiperazin-1-yl)-2-pyridyl]amino] isoindolin-1-one], the IC50 is under 100 nM.
The result for `COCC1CN(c2ccc(Nc3ccc(-c4cnc5cnccn45)c4c3C(=O)NC4)nc2)CCO1` (stereo in doubt) [I-333, (S)-4-(imidazo[1,2-a]pyrazin-3-yl)-7-((5-(2-(methoxymeth-yl)morpholino)-pyridin-2-yl)amino)isoin-dolin-1-one] reads under 100 nM; that for `O=C1NCc2c(-c3cnc4cc(CN5CC(F)C5)ccn34)ccc(Nc3ccc(N4CCC(O)CC4)cn3)c21` [I-378, 4-(7-((3-fluoroazetidin-1-yl)methyl)imidazo[1,2-a]pyridin-3-yl)-7-((5-(4-hydroxy-piperidin-1-yl)pyridin-2-yl)amino)isoin-dolin-1-one], 100 to 1000 nM.
The result for `O=C1NCc2c(-c3cnc4cc(C(F)F)ccn34)ccc(Nc3ccc(N4CCC(O)CC4)cn3)c21` [I-194, 4-[7-(difluorometh-yl)imidazo[1,2-a]pyridin-3-yl]-7-[[5-(4-hydroxy-1-piperidyl)-2-pyripyl]amino] isoindolin-1-one] reads under 100 nM; that for `CN(C)Cc1nc(Nc2ccc(-c3cnc4cc(F)ccn34)c3c2C(=O)NC3)ccc1N1CCC[C@H](C(C)(C)O)C1` [I-746, (S)-7-((6-((dimethylamino)-methyl)-5-(3-(2-hydroxypropan-2-yl)piperidin-1-yl)pyridin-2-yl)amino)-4-(7-fluoroimidazo [1,2-a]pyridin-3-yl)isoindolin-1-one], under 100 nM; that for `CC(C)(O)[C@@H]1CN(c2ccc(Nc3ccc(-c4cnc5cc(F)ccn45)c4c3C(=O)NC4)nc2)CCO1` [I-344], under 100 nM.
With `Cn1ccc2c(-c3ccc(Nc4ccc(N5CCC(O)CC5)cn4)c4c3CNC4=O)ccnc21` [I-75, 7-[[5-(4-hydroxy-1-piperidyl)-2-pyridyl]amino]-4-(1-methylpyrrolo [2,3-b]pyridin-4-yl)isoindolin-1-one] the figure was under 100 nM.
On to `Cn1ccc2c(-c3c(F)cc(Nc4ccc(N5CCC(O)CC5)cn4)c4c3CNC4=O)ccnc21` [I-197, 5-fluoro-7-[[5-(4-hydroxy-1-piperidyl)-2-pyridyl]amino]-4-(1-methylpyrrolo[2,3-b]pyridin-4-yl)isoindolin-1-one], for which the IC50 was under 100 nM.
With `CN(C)Cc1nc(Nc2cnc(-c3ccnc4c3ccn4C)c3c2C(=O)NC3)ccc1C1CCOCC1` [I-845, 7-[[6-[(dimethylamino)-methyl]-5-tetrahydropyran-4-yl-2-pyridyl]amino]-4-[l-methylpyrrolo [2,3-b]pyridin-4-yl)-2,3-dihydropyrrolo [3,4-c]pyridin-1-one Formic acid salt] the figure was under 100 nM; with `O=C1NCc2c(-c3cnn4c3CCC(C(=O)NC3CC3)C4)ccc(Nc3ccc(N4CCC(O)CC4)cn3)c21` (stereo not drawn) [I-150, N-cyclopropyl-3-[7-[[5-(4-hydroxy-1-piperidyl)-2-pyridyl]amino]-1-oxo-isoindolin-4-yl]-4,5,6,7-tetrahydropyra-zolo[1,5-a]pyridine-6-carboxamide], 100 to 1000 nM.
For the compound `CN1CCN(c2ccc(Nc3cnc(-c4c[nH]c5ccncc45)c4c3C(=O)NC4)nc2)CC1` [I-13, 7-[[5-(4-methylpiperazin-1-yl)-2-pyridyl]amino]-4-(1H-pyrrolo[3,2-c]pyridin-3-yl)-2,3-dihydropyrrolo [3,4-c]pyridin-1-one], the IC50 fell in the range of 100 to 1000 nM.
With `CN1CC(O)(C2CCCN(c3ccc(Nc4ccc(-c5cnc6cc(F)ccn56)c5c4C(=O)NC5)nc3)C2)C1` (stereo in doubt) [I-679, (S)-4-(7-fluoroimidazo [1,2-a]pyridin-3-yl)-7-((5-(3-(3-hydroxy-1-methylazetidin-3-yl)piperidin-1-yl)pyridin-2-yl)amino)isoin-dolin-1-one] the figure was under 100 nM; with `CN(C)Cc1nc(Nc2ccc(-c3cnc4cc(F)ccn34)c3c2C(=O)NC3)ccc1N1CCOCC12CC2` [I-525, 7-[[6-[(dimethylamino)-methyl]-5-(7-oxa-4-azaspiro[2.5]octan-4-yl)-2-pyridyl]amino]-4-(7-fluoroimidazo [1,2-a]pyridin-3-yl)isoindolin-1-one], under 100 nM; with `O=C1NCc2c(-c3cnc4cc(F)ccn34)ccc(Nc3ccc(N4CCCC(N5CCOCC5)C4)cn3)c21` (stereo not drawn) [I-476, Formic acid salt 4-(7-fluoroimidazo [1,2-a]pyridin-3-yl)-7-[[5-(3-morpholino-1-piperidyl)-2-pyridyl]amino] isoindolin-1-one], under 100 nM.
The result for `O=C1NCc2c(-c3cnc4cc(F)ccn34)ccc(Nc3ccc(N4CCO[C@H](CO)C4)cn3)c21` [I-454, 4-(7-fluoroimidazo [1,2-a]pyridin-3-yl)-7-[[5-[(2S)-2-(hydroxymeth-yl)morpliolin-4-yl]-2-pyridyl]amino] isoindolin-1-one] reads under 100 nM; that for `Cn1ccc2c(-c3c(Cl)cc(Nc4ccc(N5CCC(O)CC5)cn4)c4c3CNC4=O)ccnc21` [I-190, 5-chloro-7-[[5-(4-hydroxy-1-piperidyl)-2-pyridyl]amino]-4-(1-methylpyrrolo[2,3-b]pyridin-4-yl)isoindolin-1-one], under 100 nM; that for `Cn1nc(Nc2ccc(-c3ccnc4c3ccn4C)c3c2C(=O)NC3)cc1C1CCOCC1` [I-129, 4-(1-methylpyrrolo [2,3-b]pyridin-4-yl)-7-[(1-methyl-5-tetrahydropy-ran-4-yl-pyrazol-3-yl)amino]isoin-dolin-1-one], under 100 nM.
The result for `CC(C)(O)[C@@H]1CN(c2ccc(Nc3cnc(-c4cnc5c(F)cccn45)c4c3C(=O)NC4)nc2)CCO1` [I-483, 4-(8-fluoroimidazo [1,2-a]pyridin-3-yl)-7-[[5-[(2S)-2-(1-hydroxy-1-methyl-ethyl)morpholin-4-yl]-2-pyridyl]amino]-2,3-dihydropyrrolo [3,4-c]pyridin-1-one] reads under 100 nM.
As for `CN(C)Cc1nc(Nc2ccc(-c3cnc4cc(F)ccn34)c3c2C(=O)NC3)ccc1N1CCN(C)C(=O)C1` [I-795, 7-((6-((dimethylamino)-methyl)-5-(4-methyl-3-oxopiperazin-1-yl)pyridin-2-yl)amino)-4-(7-fluoroimidazo [1,2-a]pyridin-3-yl)isoindolin-1-one], the IC50 is under 100 nM.
With `N#Cc1ccn2c(-c3ncc(Nc4ccc(N5CCOCC5)cn4)c4c3CNC4=O)cnc2c1` [I-189, 3-[7-[(5-morpholino-2-pyridyl)-amino]-1-oxo-2,3-dihydropyrrolo [3,4-c]pyridin-4-yl]imidazo[1,2-a]pyridine-7-carbonitrile] the figure was 100 to 1000 nM; with `O=C1NCc2c(-c3cnc4cc(F)ccn34)ccc(Nc3ccc([C@H]4CCOC4)c(CN4CCC4)n3)c21` [I-756, (R)-7-((6-(azetidin-1-ylmethyl)-5-(tetrahydrofuran-3-yl)pyridin-2-yl)amino)-4-(7-fluoroimidazo [1,2-a]pyridin-3-yl)isoindolin-1-one], under 100 nM.
With `O=C1NCc2c(-c3cnc4cc(F)ccn34)ccc(Nc3cccc(N4CC[C@H]5CNC[C@H]54)n3)c21` [I-497, 4-(7-fluoroimidazo [1,2-a]pyridin-3-yl)-7-((6-((3aS,6aS)-hexahydropy-rrolo[3,4-b]pyrrol-1(2H)-yl)pyridin-2-yl)amino)isoin-dolin-1-one] the figure was under 100 nM; with `COC1(c2ccc(Nc3ccc(-c4cnc5cc(F)ccn45)c4c3C(=O)NC4)nc2CN(C)C)CCOCC1` [I-830, 7-((6-((dimethylamino)-methyl)-5-(4-methoxytetra-hydro-2H-pyran-4-yl)pyridin-2-yl)amino)-4-(7-fluoroimidazo [1,2-a]pyridin-3-yl)isoindolin-1-one], under 100 nM.
The result for `Cn1ccc2c(-c3ncc(Nc4cccc(N5CC6(CCN6)C5)n4)c4c3CNC4=O)ccnc21` [I-680, 7-((6-(l,6-diazaspiro[3,3]heptan-6-yl)pyridin-2-yl)amino)-4-(1-methyl-1H-pyrrolo[2,3-b]pyridin-4-yl)-2,3-dihydro-1H-pyrrolo[3,4-c]pyridin-1-one] reads 100 to 1000 nM; that for `Cc1ccn2c(-c3ccc(Nc4ccc(N5CCC[C@H](O)C5)cn4)c4c3CNC4=O)cnc2c1` [I-170, 7-[[5-[(3S)-3-hydroxy-1-piperidyl]-2-pyridyl]amino]-4-(7-methylimidazo [1,2-a]pyridin-3-yl)isoindolin-1-one], under 100 nM.
Regarding `COCCNc1ccn2c(-c3ccc(Nc4ccc(N5CCC(O)CC5)cn4)c4c3CNC4=O)cnc2c1` [I-205, 7-[[5-(4-hydroxy-1-piperidyl)-2-pyridyl]-amino]-4-[7-(2-methoxyethyl-amino)imidazo [1,2-a]pyridin-3-yl]isoindolin-1-one], the IC50 is 100 to 1000 nM.
